Laboratory results: PubChem BioAssay (NCI)
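At the GI50, growth is halved. TGI: concentration producing complete growth inhibition.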

What was measured:
Test in all cases: inhibition of tumour cell growth, NCI panel, 384-well format
SNB-19 CNS = tested on: SNB-19 CNS
HT29 colon = tested on: HT29 colon
LOX IMVI melanoma = tested on: LOX IMVI melanoma
MCF7 breast = tested on: MCF7 breast
BT-549 breast = tested on: BT-549 breast
IGROV1 ovarian = tested on: IGROV1 ovarian
MALME-3M melanoma = tested on: MALME-3M melanoma
SK-MEL-5 melanoma = tested on: SK-MEL-5 melanoma
HOP-92 NSCLC = tested on: HOP-92 NSCLC
SF-295 CNS = tested on: SF-295 CNS
NCI-H322M lung = tested on: NCI-H322M lung
786-0 renal = tested on: 786-0 renal
PC-3 prostate = tested on: PC-3 prostate
SN12C renal = tested on: SN12C renal
A549 NSCLC = tested on: A549 NSCLC
HOP-62 NSCLC = tested on: HOP-62 NSCLC
DU-145 prostate = tested on: DU-145 prostate
SF-539 CNS = tested on: SF-539 CNS
MDA-MB-231 breast = tested on: MDA-MB-231 breast
MOLT-4 leukemia = tested on: MOLT-4 leukemia
UO-31 renal = tested on: UO-31 renal
U251 glioblastoma = tested on: U251 glioblastoma
TK-10 renal = tested on: TK-10 renal
K-562 leukemia = tested on: K-562 leukemia
NCI-H460 NSCLC = tested on: NCI-H460 NSCLC
SR leukemia = tested on: SR leukemia
A498 renal = tested on: A498 renal
M14 melanoma = tested on: M14 melanoma
UACC-257 melanoma = tested on: UACC-257 melanoma

Q: `COc1cccc2cc(-c3nc(C4CCC(C(=O)O)CC4)n4ncnc(N)c34)[nH]c12` (stereo not drawn) was tested. Which GI50 (SNB-19 CNS) did it give?
A: 8.96 µM

Q: And the TGI (SNB-19 CNS)?
A: > 100 µM

Q: And the GI50 (HT29 colon)?
A: 8.51 µM

Q: And the TGI (HT29 colon)?
A: > 100 µM

Q: What about the GI50 (LOX IMVI melanoma) of the same compound?
A: 2690 nM

Q: And the TGI (LOX IMVI melanoma)?
A: 10.3 µM

Q: What about the GI50 (MCF7 breast) of the same compound?
A: 229 nM

Q: What about the TGI (MCF7 breast) of the same compound?
A: > 100 µM

Q: And the GI50 (BT-549 breast)?
A: 1170 nM

Q: And the TGI (BT-549 breast)?
A: 5.36 µM

Q: What about the GI50 (IGROV1 ovarian) of the same compound?
A: 360 nM

Q: What about the TGI (IGROV1 ovarian) of the same compound?
A: 4.38 µM

Q: And the GI50 (MALME-3M melanoma)?
A: 190 nM

Q: And the TGI (MALME-3M melanoma)?
A: 878 nM

Q: What about the GI50 (SK-MEL-5 melanoma) of the same compound?
A: 518 nM

Q: And the TGI (SK-MEL-5 melanoma)?
A: 2180 nM

Q: And the GI50 (HOP-92 NSCLC)?
A: 1000 nM

Q: What about the TGI (HOP-92 NSCLC) of the same compound?
A: 8.38 µM

Q: And the GI50 (SF-295 CNS)?
A: 1160 nM

Q: What about the TGI (SF-295 CNS) of the same compound?
A: 4.99 µM

Q: And the GI50 (NCI-H322M lung)?
A: 426 nM

Q: And the TGI (NCI-H322M lung)?
A: 21.5 µM

Q: What about the GI50 ([…]-0 renal) of the same compound?
A: 3.33 µM

Q: And the TGI (786-0 renal)?
A: 19.5 µM

Q: And the GI50 (PC-3 prostate)?
A: 560 nM

Q: And the TGI (PC-3 prostate)?
A: 5.83 µM

Q: And the GI50 (SN12C renal)?
A: 941 nM

Q: And the TGI (SN12C renal)?
A: > 100 µM

Q: And the GI50 (A549 NSCLC)?
A: 2900 nM

Q: And the TGI (A549 NSCLC)?
A: 27.9 µM

Q: What about the GI50 (HOP-62 NSCLC) of the same compound?
A: 1110 nM

Q: And the TGI (HOP-62 NSCLC)?
A: 5.42 µM

Q: What about the GI50 (DU-145 prostate) of the same compound?
A: 3.71 µM

Q: What about the TGI (DU-145 prostate) of the same compound?
A: > 100 µM

Q: What about the GI50 (SF-539 CNS) of the same compound?
A: 1760 nM

Q: What about the TGI (SF-539 CNS) of the same compound?
A: 10.4 µM

Q: And the GI50 (MDA-MB-231 breast)?
A: 811 nM

Q: What about the TGI (MDA-MB-231 breast) of the same compound?
A: > 100 µM

Q: What about the GI50 (MOLT-4 leukemia) of the same compound?
A: 651 nM

Q: What about the TGI (MOLT-4 leukemia) of the same compound?
A: 10.2 µM

Q: And the GI50 (UO-31 renal)?
A: 919 nM

Q: And the TGI (UO-31 renal)?
A: 15.8 µM

Q: What about the GI50 (U251 glioblastoma) of the same compound?
A: 4.36 µM

Q: What about the TGI (U251 glioblastoma) of the same compound?
A: > 100 µM

Q: What about the GI50 (TK-10 renal) of the same compound?
A: 1750 nM

Q: And the TGI (TK-10 renal)?
A: 11 µM

Q: What about the GI50 (K-562 leukemia) of the same compound?
A: 2610 nM

Q: What about the TGI (K-562 leukemia) of the same compound?
A: 38 µM

Q: And the GI50 (NCI-H460 NSCLC)?
A: 390 nM

Q: And the TGI (NCI-H460 NSCLC)?
A: 13 µM

Q: What about the GI50 (SR leukemia) of the same compound?
A: 293 nM

Q: And the TGI (SR leukemia)?
A: 1250 nM

Q: And the GI50 (A498 renal)?
A: 539 nM

Q: What about the TGI (A498 renal) of the same compound?
A: 4.25 µM

Q: And the GI50 (M14 melanoma)?
A: 727 nM

Q: And the TGI (M14 melanoma)?
A: 15.6 µM

Q: And the GI50 (UACC-257 melanoma)?
A: 3.13 µM

Q: And the TGI (UACC-257 melanoma)?
A: 27 µM
